Laboratory results as given in the supplement of paper PMC13380429.

How the values were obtained:
[1] = test system: A549-ACE2 infected with SARS-CoV-2; assay: cell count relative to DMSO; higher = less toxic; details: 24 h
Caco-2 [2] = assay: cell viability relative to DMSO; higher = less toxic; details: 72 h
Calu-3 [3] = assay: as above; details: 72 h
HepG2 [4] = assay: as above; details: 72 h
U2OS [5] = assay: as above; details: 72 h
Vero E6 [6] = assay: as above; details: 72 h
[7] = test system: A549-ACE2 infected with SARS-CoV-2; assay: SARS-CoV-2 infection rate relative to DMSO; higher = more infection; details: 24 h
A549-ACE2 [8] = assay: drug-induced phospholipidosis relative to tamoxifen; higher = more phospholipidosis
[9] = test system: A549-ACE2 infected with SARS-CoV-2; assay: morphology score (similarity to uninfected cells); higher = more like uninfected cells; details: 24 h
Caco-2 [10] = assay: relative viability EC50 (midpoint between 100% and the lowest measured viability); higher = less toxic; details: 72 h
Calu-3 [11] = assay: as above; details: 72 h
HepG2 [12] = assay: as above; details: 72 h
U2OS [13] = assay: as above; details: 72 h
Vero E6 [14] = assay: as above; details: 72 h
Caco-2 [15] = assay: drug sensitivity score (DSS) for viability; higher = more toxic; extreme values may be limits of the assay; details: 72 h
Calu-3 [16] = assay: as above; details: 72 h
HepG2 [17] = assay: as above; details: 72 h
U2OS [18] = assay: as above; details: 72 h
Vero E6 [19] = assay: as above; details: 72 h
A549-ACE2 [20] = assay: phospholipidosis EC50; higher = less potent phospholipidosis inducer

C=C1C(=O)O[C@@H]2/C=C(\C)CC/C=C(\C)CC[C@@H]12 [costunolide]
Details	SARS-CoV-2 infection rate, [7] [%]	cell count, [1] [%]	cell viability, Caco-2 [2] [%]	cell viability, Calu-3 [3] [%]	cell viability, HepG2 [4] [%]	cell viability, U2OS [5] [%]	cell viability, Vero E6 [6] [%]	morphology score, [9]
1 nM	–	–	96.5	117	99.7	96.3	98.6	–
10 nM	–	–	92.8	102	108	99.8	91.9	–
100 nM	–	–	91.1	98.7	92.9	94.3	99.1	–
0.3 µM	103	104	–	–	–	–	–	0.19
1000 nM	–	–	86.6	94.5	97.3	96.8	97.8	–
3 µM	104	97	–	–	–	–	–	-0.19
10 µM	106	99	–	–	–	–	–	-0.21
10000 nM	–	–	87.1	105	91.5	94.7	93.4	–
30 µM	66	70	–	–	–	–	–	0.15

drug-induced phospholipidosis [%], A549-ACE2 [8]
Details	0.3 µM	0.833333 µM	3.33333 µM	6.66667 µM	10 µM	30 µM
24 h	0.39	-3.23	0.77	4.32	10.4	39.6
48 h	2.36	-2.51	0.025	1.2	4.57	14.4
72 h	2.1	-1.84	-1.2	-0.442	1.25	9.89

Details	drug sensitivity score	relative viability EC50 [µM]
Caco-2 [10]	–	> 10
Caco-2 [15]	0.9	–
Calu-3 [11]	–	> 10
Calu-3 [16]	0	–
HepG2 [12]	–	> 10
HepG2 [17]	0	–
U2OS [13]	–	> 10
U2OS [18]	0	–
Vero E6 [14]	–	> 10
Vero E6 [19]	0	–

CCCCCCCCc1ccc(CCC(N)(CO)CO)cc1 [fingolimod]
Details	SARS-CoV-2 infection rate [%]	cell count [%]	cell viability [%]	morphology score	phospholipidosis EC50 [µM]
A549-ACE2 [20], 24 h	–	–	–	–	3.36
A549-ACE2 [20], 48 h	–	–	–	–	3.04
A549-ACE2 [20], 72 h	–	–	–	–	5.67
Caco-2 [2], 1 nM	–	–	101	–	–
Caco-2 [2], 10 nM	–	–	100	–	–
Caco-2 [2], 100 nM	–	–	87.2	–	–
Caco-2 [2], 1000 nM	–	–	93.8	–	–
Caco-2 [2], 10000 nM	–	–	55.7	–	–
Calu-3 [3], 1 nM	–	–	101	–	–
Calu-3 [3], 10 nM	–	–	104	–	–
Calu-3 [3], 100 nM	–	–	102	–	–
Calu-3 [3], 1000 nM	–	–	94.9	–	–
Calu-3 [3], 10000 nM	–	–	8.4	–	–
HepG2 [4], 1 nM	–	–	107	–	–
HepG2 [4], 10 nM	–	–	105	–	–
HepG2 [4], 100 nM	–	–	99.5	–	–
HepG2 [4], 1000 nM	–	–	98	–	–
HepG2 [4], 10000 nM	–	–	0.4	–	–
U2OS [5], 1 nM	–	–	102	–	–
U2OS [5], 10 nM	–	–	105	–	–
U2OS [5], 100 nM	–	–	102	–	–
U2OS [5], 1000 nM	–	–	105	–	–
U2OS [5], 10000 nM	–	–	71.9	–	–
Vero E6 [6], 1 nM	–	–	105	–	–
Vero E6 [6], 10 nM	–	–	95.4	–	–
Vero E6 [6], 100 nM	–	–	105	–	–
Vero E6 [6], 1000 nM	–	–	101	–	–
Vero E6 [6], 10000 nM	–	–	84.7	–	–
[1], 0.3 µM	–	100	–	–	–
[1], 3 µM	–	109	–	–	–
[1], 10 µM	–	114	–	–	–
[7], 0.3 µM	100	–	–	–	–
[7], 3 µM	64	–	–	–	–
[7], 10 µM	12	–	–	–	–
[9], 0.3 µM	–	–	–	-0.2	–
[9], 3 µM	–	–	–	0.46	–
[9], 10 µM	–	–	–	0.74	–

drug-induced phospholipidosis [%], A549-ACE2 [8]
Details	0.3 µM	0.833333 µM	3.33333 µM	6.66667 µM	10 µM
24 h	9.06	18.8	83.3	124	138
48 h	8.05	10.9	84.5	114	135
72 h	4.63	6.35	49.7	102	130

Details	drug sensitivity score	relative viability EC50 [µM]
Caco-2 [15]	3.3	–
Calu-3 [11]	–	2.73
Calu-3 [16]	5.8	–
HepG2 [12]	–	3.02
HepG2 [17]	5.8	–
U2OS [18]	0.9	–
Vero E6 [14]	–	> 10
Vero E6 [19]	0.2	–

C=C1C(=O)O[C@@H]2[C@H]3O[C@]3(C)CC/C=C(\C)CC[C@@H]12 [parthenolide-(alternate-stereo)]
Details	SARS-CoV-2 infection rate, [7] [%]	cell count, [1] [%]	cell viability, Caco-2 [2] [%]	cell viability, Calu-3 [3] [%]	cell viability, HepG2 [4] [%]	cell viability, U2OS [5] [%]	cell viability, Vero E6 [6] [%]	morphology score, [9]
1 nM	–	–	98.5	102	102	100	102	–
10 nM	–	–	95.8	108	95.7	101	99.7	–
0.1 µM	101	101	–	–	–	–	–	0.0167
100 nM	–	–	96.8	97.3	103	99.4	102	–
0.3 µM	99.3	102	–	–	–	–	–	0.157
1 µM	104	100	–	–	–	–	–	-0.0567
1000 nM	–	–	98.67	109	94.2	97.7	102	–
3 µM	105	97.7	–	–	–	–	–	-0.3
10000 nM	–	–	45.4	128	22.5	12.2	52.3	–

drug-induced phospholipidosis [%], A549-ACE2 [8]
Details	0.3 µM	0.833333 µM	3.33333 µM	6.66667 µM	10 µM
24 h	1.51	0.313	6.15	18.1	24
48 h	1.04	-0.06	2.1	11.9	16.9
72 h	3.01	-1.59	-0.616	4.96	9.42

Details	drug sensitivity score	relative viability EC50 [µM]
Caco-2 [10]	–	2.99
Caco-2 [15]	3.07	–
Calu-3 [16]	0.733	–
HepG2 [12]	–	2.48
HepG2 [17]	5.27	–
U2OS [13]	–	2.94
U2OS [18]	5.23	–
Vero E6 [19]	2.37	–
